In patent US4609758A, “Phenoxyethylamine derivatives” (American Home Products Corporation, priority 1985, dated 1986):

How the values were obtained:
[1] = test system: synaptosomal uptake of norepinephrine; experiment: Inhibition of synaptosomal norepinephrine (3H-NE) uptake; format: biochemical; conditions: synaptosomal uptake of 3H-NE, read-out: NE uptake, inhibitory concentration at which the rate of uptake was reduced to 50 percent (IC50)
[2] = test system: synaptosomal uptake of serotonin (5-HT); experiment: Inhibition of synaptosomal serotonin (14C-5-HT) uptake; format: biochemical; conditions: synaptosomal uptake of 14C-5-HT, read-out: 5-HT uptake, inhibitory concentration at which the rate of uptake was reduced to 50 percent (IC50)
[3] = test system: muscarinic receptor; experiment: Inhibition of 3H-QNB binding (QNB receptor binding assay); conditions: for anticholinergic property reflected by inhibition of binding of the muscarinic receptor ligand 3H-QNB (in words): 3H-quinuclidinyl benzilate; for IC50 / Ki: inhibition of 3H-QNB binding

Row | Compound | IC50 [1] | IC50 [2] | anticholinergic property reflected by inhibition of binding of the muscarinic receptor ligand 3H-QNB (in words) [3] | IC50 [3] | Ki [3]
1 | COc1cccc(OC(CN(C)C)C2(O)CCCCC2)c1 (centres unmarked) [Example 10, 1-[2-(Dimethylamino)-1-(3-methoxyphenoxy)ethyl]cyclohexanol] | 1160 nM | 700 nM | – | – | –
3 | CN(C)CC(Oc1ccc(Cl)cc1Cl)C1(O)CCCCC1 (centres unmarked) [Example 2, 1-[1-(2,4-Dichlorophenoxy)-2-(dimethylamino)ethyl]cyclohexanol] | 3140 nM | 530 nM | essentially inactive | > 10000 nM | –
4 | COc1ccc(OC(CN(C)C)C2(O)CCCC2)cc1 (centres unmarked) [Example 6, 1-[2-(dimethylamino)-1-(4-methoxyphenoxy)ethyl]cyclopentanol] | 3140 nM | 640 nM | – | – | –
5 | CN(C)CC(Oc1ccc(Cl)cc1Cl)C1(O)CCCC1 (centres unmarked) [Example 3, 8-[1-(2,4-Dichlorophenoxy)-2-(dimethylamino)ethyl]cyclopentanol] | 2250 nM | 440 nM | – | – | –
6 | CNCCC(Oc1ccc(C(F)(F)F)cc1)c1ccccc1 (centres unmarked) [Fluoxetine, reference compound] | 4500 nM | – | – | – | –
7 | CNCCCN1c2ccccc2CCc2ccccc21 [DMI, reference compound] | 150 nM | – | – | – | […]
8 | COc1cccc(OC(CN(C)C)C2(O)CCCCCC2)c1 (centres unmarked) [Example 11, 1-[2-(Dimethylamino)-1-(3-methoxyphenoxy)ethyl]cycloheptanol] | 1160 nM | 900 nM | – | – | –
9 | COc1cccc(OC(CN(C)C)C2(O)CCCC2)c1 (centres unmarked) [Example 12, 1-[2-(Dimethylamino)-1-(3-methoxyphenoxy)ethyl]cyclopentanol] | 1580 nM | 970 nM | – | – | –
10 | CN(C)CCCN1c2ccccc2CCc2ccccc21 [Imipramine, reference compound] | 260 nM | 120 nM | – | – | 37 nM
11 | COc1ccc(OC(CN(C)C)C2(O)CCCCCC2)cc1 (centres unmarked) [Example 5, 1-[2-(Dimethylamino)-1-(4-methoxyphenoxy)ethyl]cycloheptanol] | 810 nM | 170 nM | – | – | –
12 | CN(C)CC(Oc1ccc(C(F)(F)F)cc1)C1(O)CCCCCC1 (centres unmarked) [Example 9, 1-[2-Dimethylamino-1-(4-trifluoromethylphenoxy)ethyl]cycloheptanol] | 3780 nM | 490 nM | – | – | –
13 | CN(C)CC(Oc1cccc(C(F)(F)F)c1)C1(O)CCCCC1 (centres unmarked) [Example 7, 1-[2-(dimethylamino)-1-(3-trifluoromethylphenoxy)ethyl]cyclohexanol] | 2350 nM | 1200 nM | – | – | –
14 | CN(C)CC(Oc1ccc(Cl)cc1)C1(O)CCCCC1 (centres unmarked) [Example 1, 1-[1-(4-Chlorophenoxy)-2-(dimethylamino)ethyl]cyclohexanol] | 220 nM | 170 nM | essentially inactive | > 10000 nM | –
15 | CN(C)CC(Oc1ccc(C(F)(F)F)cc1)C1(O)CCCCC1 (centres unmarked) [Example 8, 1-[2-Dimethylamino-1-(4-trifluoromethylphenoxy)ethyl]cyclohexanol] | 2500 nM | 340 nM | – | – | –
16 | COc1ccc(OC(CN(C)C)C2(O)CCCCC2)cc1 (centres unmarked) [Example 4, 1-[2-(Dimethylamino)-1-(4-methoxyphenoxy)ethyl]cyclohexanol] | 920 nM | 180 nM | – | – | –
